Read-outs that look alike come from different tables or passages of the source.
Columns and labels:
[1] = UV-visible spectroscopic evaluation of oxygen complex formation by cobalt carrier compounds; format: binding
From the text: Initially, solutions of particular carrier compounds are monitored by UV-visible spectroscopy to determine whether the carrier compound forms oxygen complexes of sufficient stability as to be potentially useful in processes according to the present invention. UV-visible spectra of carrier compounds are also observed as a function of the pH to determine the pH range, if any, over which the carrier compounds bind oxygen without decomposition. The initial pH for use in further experiments (the "Working pH") is defined as one pH unit above that at which the proportion of carrier compound-oxygen complex is about 90% or more of the maximum formed under ca. 0.2 atm oxygen, as determined by this spectroscopic examination. […] An initial working pH can also be determined from potentiometric experiments on the oxygen complexes of cobalt carrier compounds, as will be discussed below.
The necessary UV and visible spectra necessary for this evaluation are obtained with any of a variety of commercially available spectrophotometers. The solution to be measured is prepared in or transferred to a suitable quartz cell with provision for the exclusion of oxygen. […] Spectra are then recorded under both oxygen free and oxygenated conditions at each of the desired pH values.

[2] = literature, Ref. 1, 2 or 4; cited from earlier work
[3] = set-up: key to Log K02 (symbol): *: Oxygen complex is unstable.; **: No oxygen complex observed; settings: cobalt complex, literature, cited from earlier work; for Log K02: dimeric oxygen complex, Ref. 1 or 4
[4] = Potentiometric pH titration of polyalkylamines: protonation constants (basicity); format: physicochemical; settings: 25°±0.1° C., ca. 1.5 mM PAA; Ref. 3 determined by applicants
From the text: the equilibrium constants for successive protonations of the PAA compounds are defined by
KHi =[PAA(H^+)i ]/[PAA(H^+)i-1 ] [H^+ ](10)
Where spectrophotometric characterization of a particular cobalt carrier compound has proven satisfactory, both the polyalkylamine and the cobalt carrier compound are characterized by a set of potentiometric pH titrations to determine the basicity of the ligating atoms, the formation constants KML and KMLH, and the apparent oxygen binding equilibrium constants.
Potentiometric titrations are performed using a Fisher or Cole-Palmer pH meter in a sealed, jacketed glass cell equipped with glass and calomel electrodes and with provisions for performing measurements under oxygen-free conditions. The cell is kept at a constant temperature of 25°±0.1° C. by circulating water from a thermostated bath through the cell jacket. The electrodes and pH meter are standardized with commercially available standard buffer solutions (Fisher Scientific). The polyalkylamine ligands and cobalt carrier compounds were each titrated potentiometrically by incrementally adding standard potassium hydroxide solution and recording the pH of the solution after each addition of base. Titrations of the cobalt carrier compounds are carried out under prepurified nitrogen or argon; titrations of oxygenated carrier compounds are performed under oxygen treated with Ascarite to remove carbon dioxide.
All solutions contained ca. 1.5 mM PAA; for titrations of cobalt complexes, the solutions contained, in addition, 1.5 mM CoCl2.
Typical results obtained as outlined above from pH titrations of selected polyalkylamines, cobalt carrier compounds, and oxygen complexes of cobalt carrier compounds are graphically depicted in FIGS. 2, 3, and 4, and summarized in Table III. The values shown in Table III, defined by equations (6)-(8) and (10). above, were derived either by direct measurement from the titration curves obtained, or determined by the iterative best fit of the data to a computer program such as that described by Harris, et al., Inorganic Chemistry, vol. 17, p. 889, 890 (1978). Generally, although the latter values are considered to be more reliable, values obtained by either methods are approximately the same and sufficient for the present evaluation.

[5] = Cyclic voltammetry of Co(PAA)n+ carrier compounds; format: physicochemical; set-up: key to ΔE / EPA / EPC: N.O.: not observed due to low electrochemical activity
Experimental: Cyclic voltammentry experiments were performed under nitrogen or iar for the unoxygenated or oxygenated carrier compounds, respectively, in a cell having a platinum wire auxiliary electrode, a silver-silver chloride reference electrode, and suitable working electrode. The potential between the auxiliary and working electrodes was varied with a Princeton Applied Research (Princeton, N.J.) Scanning Potentiostate at 50 mV/s from a suitable initial with a suitable initial scan direction (Scan Dir.), depending on the electrochemical potentials if interest. All solutions contained 1 mM CoCl2, 1 mM or 1.5 mM PAA, and a supporting electrolyte, and were buffered to a suitable pH, usually about the initial working pH.
Cyclic voltammetry enables the estimation of anode (EPA) and cathode (EPC) half cell potentials, the cell potential ΔE=(EPA -EPC), and an approximate formal reaction potential […]. In addition, estimates of the rate of electron transfer to a particular electrode and electrochemical reversibility of the reaction can be obtained.

[6] = deox, 1.5 mM PAA, pH 9.0, 0.5M NaCl/0.1M Borate, glassy carbon, Einitial -0.3 V, scan +
[7] = ox, 1.5 mM PAA, pH 9.0, 0.5M NaCl/0.1M Borate, glassy carbon, Einitial -0.3 V, scan +
[8] = deox, 1.5 mM PAA, pH 3.0, 0.5M KCl/0.1M K2HPO4, gold, Einitial -0.3 V, scan +
[9] = ox, 1.0 mM PAA, pH 9.0, 0.5M NaCl/0.1M Borate, gold, Einitial +0.12 V, scan +
[10] = ox, 1.0 mM PAA, pH 6.0, 0.5M KCl/0.1M K2HPO4, glassy carbon, Einitial +0.1 V, scan +
[11] = deox, 1.0 mM PAA, pH 7.6, 0.5M NaCl/0.1M K2HPO4, gold, Einitial -0.3 V, scan +
[12] = ox, 1.0 mM PAA, pH 7.6, 0.5M KCl/0.1M K2HPO4, gold, Einitial +0.3 V, scan +
[13] = ox, 1.0 mM PAA, pH 3.0, 0.5M KCl/0.1M K2HPO4, glassy carbon, Einitial -0.05 V, scan +
[14] = deox, 1.0 mM PAA, pH 5.93, 0.5M KCl/0.1M K2HPO4, glassy carbon, Einitial +0.1 V, scan +
[15] = ox, 1.0 mM PAA, pH 5.93, 0.5M KCl/0.1M K2HPO4, glassy carbon, Einitial +0.1 V, scan +
[16] = ox, 1.0 mM PAA, pH 12.0, 0.5M KCl/0.1M K2HPO4, glassy carbon, Einitial +0.19 V, scan -
[17] = deox, 1.0 mM PAA, pH 10.1, 0.5M KCl/0.1M K2HPO4, glassy carbon, Einitial +0.15 V, scan -
[18] = ox, 1.0 mM PAA, pH 10.1, 0.5M KCl/0.1M K2HPO4, glassy carbon, Einitial +0.1 V, scan +

Row | Log K1 [4] | Log K2 [4] | Log K3 [4] | Log K4 [4] | SMILES | Log K1 [2] | Log K2 [2] | Log K3 [2] | Log K4 [2] | Log K02 [3] | further results
1 | 7.74 | 6.69 | 2.95 | – | c1ccc(CNCc2cccc(CNCc3ccccn3)n2)nc1 [compound 21] | 7.55 | 6.86 | 3.2 | 2.9 | – | Log K02 (symbol) ([3]; Ref. 2): *
2 | 8.91 | 6.95 | 3.64 | – | c1ccc(CNCCNCCNCc2ccccn2)nc1 [compound 62] | 8.88 | 7.04 | 3.82 | 1.44 | 11.4 | EPA [5, 8]: 0.0 V; EPC [5, 8]: -0.1 V; E° [5, 8]: -0.05 V; ΔE [5, 8]: 0.1 V; EPA [5, 9]: 0.75 V; EPC [5, 9]: -0.55 V; ΔE [5, 9]: 1.3 V
3 | 8.75 | 7.61 | 3.81 | – | c1ccc(CCNCc2cccc(CNCCc3ccccn3)n2)nc1 [compound 63] | – | – | – | – | – | EPA [5, 10]: N.O.; EPC [5, 10]: N.O.; ΔE [5, 10]: N.O.
4 | 9.54 | 7.44 | 6.34 | – | c1ccc(CNCCCNCCCNCc2ccccn2)nc1 [compound 64] | 9.92 | 7.63 | 6.76 | 1.79 | 7.7 | EPA [5, 11]: 0.4 V; EPC [5, 11]: -0.45 V; E° [5, 11]: -0.05 V; ΔE [5, 11]: 0.85 V; EPA [5, 12]: 0.08 V; EPC [5, 12]: -0.4 V; ΔE [5, 12]: 1.2 V
5 | 8.6 | 6.75 | 4.76 | – | c1ccc(CNCCCNCCNCc2ccccn2)nc1 [compound 72] | – | – | – | – | – | EPA [5, 14]: 0.03 V; EPC [5, 14]: 0.66 V; E° [5, 14]: -0.02 V; ΔE [5, 14]: 0.11 V; EPA [5, 15]: 0.66 V; EPC [5, 15]: -0.07 V; ΔE [5, 15]: 0.73 V
6 | 9.15 | 7.20 | 5.79 | 3.40 | CN(CCCNCc1ccccn1)CCCNCc1ccccn1 [compound 76] | – | – | – | – | – | EPA [5, 16]: 0.25 V; EPC [5, 16]: -0.35 V; ΔE [5, 16]: 0.6 V
7 | 9.36 | 7.69 | 6.60 | – | c1ccc(CNCCCCNCCCNCc2ccccn2)nc1 [compound 78] | – | – | – | – | – | EPA [5, 17]: 0.18 V; EPC [5, 17]: 0.1 V; E° [5, 17]: 0.14 V; ΔE [5, 17]: 0.08 V; EPA [5, 18]: 0.185 V; EPC [5, 18]: 0.055 V; E° [5, 18]: 0.12 V; ΔE [5, 18]: 0.13 V

Continued, compound first:

Row | SMILES | Log K1 [4] | Log K2 [4] | Log K3 [4] | Log K4 [4] | Log K1 [2] | Log K2 [2] | Log K3 [2] | Log K4 [2] | Log K02 [3] | further results
8 | c1ccc(CNCc2cccc(CNCc3ccccn3)n2)nc1 [PAA No. 21, 2,6-Bis(l-(3-(2-Pyridyl)-2-Azapropyl))Pyridine] | – | – | – | – | – | – | – | – | – | oxidation of the cobalt ion of the Co(II) complex ([1]; Co(II) complex of the PAA): relatively rapid, irreversible oxidation of the cobalt ion to Co(III)
9 | CN(CCCNCc1ccccn1)CCCNCc1ccccn1 [PAA No. 76, 1,11-Bis(2-Pyridyl)-6-Methyl-2,6,10-Triazaundecane] | – | – | – | – | – | – | – | – | – | oxygen binding of the cobalt complex ([1]; cobalt complex of the PAA, spectrophotometric analysis, under conditions of interest): does not appear to bind oxygen
10 | NCCNCCNCCNCCN [compound 33] | – | – | – | – | 9.85 | 9.27 | 8.19 | 5.08 | 15.83 | Log K5 [2]: 3.43; EPA [5, 6]: -0.33 V; EPC [5, 6]: -0.45 V; E° [5, 6]: -0.39 V; ΔE [5, 6]: 0.12 V; EPA [5, 7]: 0.7 V; EPC [5, 7]: -0.5 V; ΔE [5, 7]: 1.2 V
11 | NCCNCc1cccc(CNCCN)n1 [compound 69] | 9.31 | 8.6 | 5.9 | 4.74 | – | – | – | – | – | EPA [5, 13]: 0.5 V; EPC [5, 13]: -0.2 V; ΔE [5, 13]: 0.7 V
12 | c1c[nH]c(CNCCCNCCCNCc2ncc[nH]2)n1 [compound 73] | – | – | – | – | 9.76 | 7.22 | 6.51 | 3.92 | 8.63 | Log K5 [2]: 3.29
13 | c1nc(CNCCCNCCCNCc2c[nH]cn2)c[nH]1 [compound 74] | 9.75 | 8.58 | 7.2 | 4.75 | 10.12 | 8.62 | 7.36 | 4.51 | 9.49 | Log K5 [2]: 3.82; Log K5 [4]: 3.75
14 | c1nc(CNCCNCCNCc2c[nH]cn2)c[nH]1 [compound 75] | 9.15 | 8.03 | 4.92 | 3.91 | 9.22 | 8.18 | 4.91 | 3.90 | – | Log K5 [2]: 2.92
15 | Cc1cccc(CNCCNCCNCc2cccc(C)n2)n1 [compound 80] | 8.52 | 6.72 | 4.1 | 3.28 | – | – | – | – | – | Log K5 [4]: 2.86
16 | Cc1cccc(CNCCCNCCCNCc2cccc(C)n2)n1 [compound 81] | 9.44 | 7.40 | 6.25 | 3.40 | – | – | – | – | – | –

— patent US5410052A, “Symmetrical and unsymmetrical polyalkylamine metal complexes for ligand extraction and generation” (The Regents of the University of California, priority 1990, dated 1995)
